From patent US20230158016A1, “DELTA OPIOID RECEPTOR ANTAGONISTS REPROGRAM IMMUNOSUPPRESSIVE MICROENVIRONMENT TO BOOST IMMUNOTHERAPY” (H LEE MOFFITT CANCER CENTER AND RESEARCH INSTITUTE, INC., priority 2020, published 2023) come the findings set out here.

The test system of the assay is Bone marrow precursors. Nature of the assay: Development of MDSC from bone marrow precursors cultured in GM-CSF and G-CSF with DOR antagonists. It is filed as cell-based, mice. The settings on record: bone marrow precursors cultured 96 hours in GM-CSF and G-CSF (20 ng/ml each), increasing concentrations of antagonist. As for the experimental part: Next the effect of DOR antagonist on M-MDSC was investigated. Bone marrow precursors were isolated and cultured for 96 hours in GM-CSF and G-CSF (20 ng/ml each) in the presence of increasing concentrations of the DOR antagonists Naltriben mesylate (NTB) or Naltrindole hydrochloride (NTD). Then, we evaluated cell viability by flow cytometry (using DAPI). […] Additionally, the number of M-MDSC (CD11b^+Ly6G^negLy6C^high) and PMN-MDSC (CD11b^+Ly6G^+Ly6C^low) was calculated.
The conjugated antibodies and probes used for flow cytometry are listed in the Key Resources Table. For surface staining, cells were labelled with the appropriate antibodies in the presence of Fc blocker. For intracellular staining, surface-labeled cells were fixed with Cytofix/Cytoperm™ Solution (BD Biosciences), washed in Perm/Wash™ 1×solution, and labelled with intracellular antibodies. Cells were then washed in Perm/Wash™ 1×and PBS. Live vs. dead cell discrimination was performed prior to antibody labeling by Zombie Fixable Viability dye (Biolegend). Ex vivo intracellular staining for IL-12 and TNFα was performed on isolated cells after stimulation for 6 hours with LPS (1 μg/ml, Sigma Aldrich) in the presence of Golgi stop (0.8 μl/ml, BD Biosciences). For IFNγ staining, cells were incubated for 5 hours with phorbol myristate acetate (PMA, 750 ng/mL, Sigma Aldrich) and ionomycin (50 μg/mL, Sigma-Aldrich) in the presence and Golgi stop (0.8 μl/ml). For ER-tracker and Mitotracker staining, cells were probed with 100 nM of ER tracker green or 200 nM of Mitotracker green (Invitrogen) and then stained for surface markers. For Mitochondrial membrane potential, cells were stained with JC-1 flow cytometry assay kit (Cayman chemicals) followed by surface markers staining. ROS were detected by DCFDA (10 μM) or Dihydroethidium (DHE, 10 μM). Data acquisition was performed in a CytoFLEX II (Beckman Coulter) or LSRII (BD Biosciences). All analysis was performed using FlowJo version 11 software.

Structures can show the parent of a compound that is named as a salt.

On to Naltriben mesylate [NTB], for which the “absolute number of generated MDSC (CD11b+Gr1+)” value was “steady decline of MDSC as concentrations increased”; the “cell viability by flow cytometry (using DAPI)” value was “strong correlation increasing concentration of either NTD or NTB and cell death”; the “number of M-MDSC (CD11b+Ly6GnegLy6Chigh)” value is “the more significant losses were observed in the M-MDSC subset”; the “number of PMN-MDSC (CD11b+Ly6G+Ly6Clow)” value is “declined in number as the concentration of NTD or NTB increased”.
As for `Oc1ccc2c3c1O[C@H]1c4[nH]c5ccccc5c4C[C@@]4(O)[C@@H](C2)N(CC2CC2)CC[C@]314` [NTD, Naltrindole hydrochloride], the “absolute number of generated MDSC (CD11b+Gr1+)” value is given as “steady decline of MDSC as concentrations increased”; the “cell viability by flow cytometry (using DAPI)” value was “strong correlation increasing concentration of either NTD or NTB and cell death”; the “number of M-MDSC (CD11b+Ly6GnegLy6Chigh)” value is recorded as “the more significant losses were observed in the M-MDSC subset”; the “number of PMN-MDSC (CD11b+Ly6G+Ly6Clow)” value is listed as “declined in number as the concentration of NTD or NTB increased”.
